From patent US20240307350A1, “5-METHOXY-N,N-DIMETHYLTRYPTAMINE (5-MEO-DMT) FOR TREATING DEPRESSION” (GH RESEARCH IRELAND LIMITED, priority 2019, published 2024)
Read-outs that look alike come from different tables or passages of the source.

What was measured:
Assay type in all cases: in vivo, human
[1] = system: healthy volunteers; assay: Clinical trial in healthy volunteers: intensity of the psychedelic effects (PPEQ); conditions: for PPEQ Intensity (0-100) / PPEQ Loss of Control (0-100) / PPEQ Profoundness (0-100) / PPEQ Total Score (0-100): group average
Description: (§1) A clinical trial was performed in which 5-MeO-DMT free base (purity not less than 99%) at different dose levels was administered via inhalation (as described in Example 1) in a single day to healthy volunteers who had prior experiences with the use of synthetic or naturally-occurring psychedelics. The trial was reviewed and approved by the relevant national competent authority and local medical ethics committee. The trial consisted of two parts: Part A, where single doses of 5-MeO-DMT dosage amounts of 2 mg, 6 mg, 12 mg and 18 mg were administered; and Part B, where an initial 5-MeO-DMT dosage amount of 6 mg was administered, and then, unless the participant had already experienced a peak psychedelic experience based on the PPEQ or the supervising physician had decided that further dose increases were inappropriate based on observed side effects, further subsequent dosage amounts of 12 mg and 18 mg were administered with about 3 hours in between each administration. Participants in Part A only received one dose and were not allowed to receive higher doses in later parts of Part A and were not allowed to participate in Part B. Participants were closely monitored for 3.5 hours after the last dose, with additional follow-up visits 1 day and 7 days after dosing. Various safety related measures (e.g., adverse event reporting, safety laboratory analyses, vital signs, ECG, CADSS, PVT, DSST, Prospective Memory Task (PMT)) as well as measures of the intensity of the psychedelic effects (MEQ30, ASC, PPEQ, subjective description of the psychedelic experience) were recorded. Pharmacokinetic analysis of 5-MeO-DMT and bufotenine plasma levels was performed at 1 hour and 3 hours after drug administration in Part A, and at 3 hours after drug administration in Part B.
(§2) 18 participants were recruited into Part A of the study and 4 participants were recruited into Part B. 9 Participants were female and 13 participants were male. Median age was 29 years (range: 19 to 42 years). In Part A, 4 participants received 2 mg, 6 participants received 6 mg, 4 participants received 12 mg and 4 participants received 18 mg of 5-MeO-DMT. In Part B, 1 participant received 6 mg, 2 participants received 6 mg and then 12 mg and one participant received 6 mg, 12 mg and then 18 mg of 5-MeO-DMT.
The Peak Psychedelic Experience Questionnaire (PPEQ) has been developed by the inventor as an improved alternative to the oceanic boundlessness dimension of the ASC and the MEQ30 to allow a simpler and quicker assessment of the intensity of a psychedelic experience. The PPEQ is comprised of three questions, all to be scored from 0 to 100 by marking a Visual Analogue Scale between 0 and 100 mm: • 1. How intense was the experience? • 2. To what extent did you lose control? • 3. How profound (i.e., deep and significant) was the experience?
The PPEQ Total Score is the average of the scores of the three questions. A “peak psychedelic experience” is identified through achievement of a PPEQ Total Score of at least 75. A statistically significant correlation between the PPEQ Total Score and the oceanic boundlessness dimension of the ASC, respectively the MEQ30 Total Score, has been observed in the data set described in Example 3.

[2] = Clinical trial in healthy volunteers: 5-MeO-DMT and bufotenine plasma levels; conditions: human, plasma, inhaled, read-out: 5-MeO-DMT plasma levels, group median; for concentration at 1 h: 1 hour after administration; for concentration at 3 h: 3 hours after administration
Description: as §1

[3] = system: healthy volunteers; assay: Clinical trial of inhaled 5-MeO-DMT in healthy volunteers: safety and tolerability
Description: as §1, §2

[4] = Part B max. dose (n = 4), highest dose for each participant (6, 12 or 18 mg)
[5] = Part A, 2 mg (n = 4), Administration day, mild
[6] = Part A, 6 mg (n = 6), Administration day, mild
[7] = Part A, 6 mg (n = 6), Day 1, mild
[8] = Part A, 18 mg (n = 4), Administration day, mild
[9] = Part A, 18 mg (n = 4), Day 1, mild
[10] = Part B, 12 mg (n = 3), after 6 mg, Administration day, mild

COc1ccc2[nH]cc(CCN(C)C)c2c1 [5-MeO-DMT, 5-methoxy-N,N-dimethyltryptamine]
PPE achieved (fraction of participants who achieved a PPEQ Total Score of at least 75) ([1]; Part A 2 mg (n = 4)): 0/4
PPEQ Intensity (0-100) ([1]; Part A 2 mg (n = 4)): 16
PPEQ Loss of Control (0-100) ([1]; Part A 2 mg (n = 4)): 4
PPEQ Profoundness (0-100) ([1]; Part A 2 mg (n = 4)): 7
PPEQ Total Score (0-100) ([1]; Part A 2 mg (n = 4)): 9.0
PPE achieved (fraction of participants who achieved a PPEQ Total Score of at least 75) ([1]; Part A 6 mg (n = 6)): 1/6
PPEQ Intensity (0-100) ([1]; Part A 6 mg (n = 6)): 53
PPEQ Loss of Control (0-100) ([1]; Part A 6 mg (n = 6)): 37
PPEQ Profoundness (0-100) ([1]; Part A 6 mg (n = 6)): 42
PPEQ Total Score (0-100) ([1]; Part A 6 mg (n = 6)): 43.8
PPE achieved (fraction of participants who achieved a PPEQ Total Score of at least 75) ([1]; Part A 12 mg (n = 4)): 2/4
PPEQ Intensity (0-100) ([1]; Part A 12 mg (n = 4)): 78
PPEQ Loss of Control (0-100) ([1]; Part A 12 mg (n = 4)): 69
PPEQ Profoundness (0-100) ([1]; Part A 12 mg (n = 4)): 51
PPEQ Total Score (0-100) ([1]; Part A 12 mg (n = 4)): 65.5
PPE achieved (fraction of participants who achieved a PPEQ Total Score of at least 75) ([1]; Part A 18 mg (n = 4)): 1/4
PPEQ Intensity (0-100) ([1]; Part A 18 mg (n = 4)): 62
PPEQ Loss of Control (0-100) ([1]; Part A 18 mg (n = 4)): 80
PPEQ Profoundness (0-100) ([1]; Part A 18 mg (n = 4)): 36
PPEQ Total Score (0-100) ([1]; Part A 18 mg (n = 4)): 59.2
PPE achieved (fraction of participants who achieved a PPEQ Total Score of at least 75) [1, 4]: 4/4
PPEQ Intensity (0-100) [1, 4]: 97
PPEQ Loss of Control (0-100) [1, 4]: 94
PPEQ Profoundness (0-100) [1, 4]: 78
PPEQ Total Score (0-100) [1, 4]: 89.3
first psychedelic symptoms after the inhalation (onset) ([1]; all participants, 2 mg to 18 mg via inhalation): within a few seconds
concentration at 1 h ([2]; 2 mg, Part A 2 mg (n = 4), range 0.03-0.69): 0.38 ng/mL
concentration at 3 h ([2]; 2 mg, Part A 2 mg (n = 4), range 0.01-0.04): 0.03 ng/mL
concentration at 1 h ([2]; 6 mg, Part A 6 mg (n = 6), range 0.09-0.64): 0.33 ng/mL
concentration at 3 h ([2]; 6 mg, Part A 6 mg (n = 6), range 0.00-0.06): 0.02 ng/mL
concentration at 3 h ([2]; 6 mg, Part B 6 mg (n = 4), range 0.00-0.09): 0.01 ng/mL
concentration at 1 h ([2]; 12 mg, Part A 12 mg (n = 4), range 0.13-0.29): 0.19 ng/mL
concentration at 3 h ([2]; 12 mg, Part A 12 mg (n = 4), range 0.01-0.01): 0.01 ng/mL
concentration at 1 h ([2]; 18 mg, Part A 18 mg (n = 4), range 0.15-2.42): 0.65 ng/mL
concentration at 3 h ([2]; 18 mg, Part A 18 mg (n = 4), range 0.01-0.24): 0.04 ng/mL
concentration at 3 h ([2]; Part B 6 mg, 12 mg (n = 3), range 0.01-0.05): 0.03 ng/mL
concentration at 3 h ([2]; Part B 6 mg, 12 mg, 18 mg (n = 1), range 0.05-0.05): 0.05 ng/mL
ECG, safety laboratory analyses, CADSS and cognitive tests (PVT, DSST, PMT) ([3]; 2 mg to 18 mg via inhalation): unremarkable
inhalation-related adverse events ([3]; Part A and Part B, 2 mg to 18 mg via inhalation): No inhalation-related adverse events
Adverse events reported: Nausea (number of volunteers) [3, 5]: 2
Adverse events reported: Tachycardia (number of volunteers) [3, 5]: 1
Adverse events reported: Vision blurred (number of volunteers) [3, 5]: 1
Adverse events reported: Anxiety (number of volunteers) [3, 6]: 1
Adverse events reported: Headache (number of volunteers) [3, 6]: 1
Adverse events reported: Nausea (number of volunteers) [3, 6]: 1
Adverse events reported: Clumsiness (number of volunteers) [3, 7]: 1
Adverse events reported: Feeling hot (number of volunteers) [3, 7]: 1
Adverse events reported: Headache (number of volunteers) [3, 7]: 1
Adverse events reported: Anxiety (number of volunteers) ([3]; Part A, 12 mg (n = 4), Administration day, mild): 1
Adverse events reported: Heart rate increased (number of volunteers) ([3]; Part A, 12 mg (n = 4), Administration day, this event was moderate): 1^1
Adverse events reported: Headache (number of volunteers) [3, 8]: 1
Adverse events reported: Nausea (number of volunteers) [3, 8]: 1
Adverse events reported: Abnormal dreams (number of volunteers) [3, 9]: 1
Adverse events reported: Fatigue (number of volunteers) [3, 9]: 1
Adverse events reported: Hallucination (number of volunteers) [3, 9]: 1
Adverse events reported: Hyperacusis (number of volunteers) [3, 9]: 1
Adverse events reported: Insomnia (number of volunteers) [3, 9]: 1
Adverse events reported: Mental fatigue (number of volunteers) [3, 9]: 1
Adverse events reported: Flashback (number of volunteers) ([3]; Part A, 18 mg (n = 4), Day 7, mild): 1
Adverse events reported: Nausea (number of volunteers) ([3]; Part B, 6 mg (n = 4), Administration day, mild): 1
Adverse events reported: Fatigue (number of volunteers) [3, 10]: 1
Adverse events reported: Head discomfort (number of volunteers) [3, 10]: 1
Adverse events reported: Headache (number of volunteers) [3, 10]: 1
Adverse events reported: Nausea (number of volunteers) [3, 10]: 1
Adverse events reported ([3]; Part B, 18 mg (n = 1), after 12 mg and 6 mg): None reported
changes in vital parameters ([3]; shortly after administration, 2 mg to 18 mg via inhalation): temporary, not clinically relevant increase in heart rate and blood pressure
